According to patent publication US7687502B2, “Substituted quinazoline or pyridopyrimidine derivative” (Banyu Pharmaceutical Co., Ltd., priority 2004, dated 2010):

Biological target: T1, Recombinant human liver GK (Homo sapiens, UniProt P35557)
T1 construct: made in house; host or cells: E. coli
T1 sequence (P35557 1-466 isoform P35557-2): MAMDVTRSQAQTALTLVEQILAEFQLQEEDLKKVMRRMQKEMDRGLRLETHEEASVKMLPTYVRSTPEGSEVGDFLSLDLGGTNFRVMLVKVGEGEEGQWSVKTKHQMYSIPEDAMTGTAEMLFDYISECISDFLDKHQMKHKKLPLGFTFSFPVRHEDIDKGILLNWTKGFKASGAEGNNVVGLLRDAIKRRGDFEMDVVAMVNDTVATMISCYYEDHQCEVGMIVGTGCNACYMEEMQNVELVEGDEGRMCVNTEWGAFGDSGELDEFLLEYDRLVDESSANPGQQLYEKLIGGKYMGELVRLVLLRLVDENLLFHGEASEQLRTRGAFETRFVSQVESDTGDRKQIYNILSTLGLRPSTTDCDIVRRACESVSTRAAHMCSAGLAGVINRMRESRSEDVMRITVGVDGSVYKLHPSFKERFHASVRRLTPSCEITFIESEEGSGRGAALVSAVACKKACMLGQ
Experiment: Glucokinase activating action (G6PDH-coupled thio-NADH absorbance assay)
Format: biochemical
Settings: GK activating ability, final glucose concentration 2.5 mM, 30° C.; for Emax: OD of DMSO control defined as 100%
Experimental: Glucokinase activating ability was measured using the compound of the present invention.
Measurement of an excellent glucokinase activating action of the compounds represented by the aforementioned formula (I) is able to be carried out by a method mentioned in literatures such as Diabetes, vol. 45, pages 1671 to 1677 (1996) or a method similar thereto.
Recombinant human liver GK used in this assay was expressed in E. coli as FLAG fusion protein and purified by ANTIFLAG M2 AFFINITY GEL (Sigma).
The assay was conducted at 30° C. using a flat-bottom 96-well plate. An assay buffer (25 mM Hepes Buffer: pH=7.2; 2 mM MgCl2, 1 mM ATP, 0.5 mM TNAD and 1 mM dithiothreitol) (69 μl) was dispensed and 1 μl of a solution of a compound in DMSO or DMSO (as a control) was added. After that, 20 μl of an enzyme mixture (FLAG-GK, 20 U/ml G6PDH) cooled in ice was added, then 10 μl of 25 mM glucose which is a substrate was added and the reaction was started (final glucose concentration=2.5 mM).
After starting the reaction, an increase in absorbance at 405 nm was measured for 10 minutes every 30 seconds and the compound was evaluated using the increase during the first 5 minutes. FLAG-GK was added in such a manner that an increase in absorbance after 5 minutes in the presence of 1% of DMSO became between 0.05 and 0.1.
OD value in the case of DMSO control was defined as 100% and OD values in various concentrations of the compound to be evaluated were measured. From the OD values in various concentrations, Emax (%) and EC50 (μM) were calculated and used as indexes of GK activating ability of the compound.

Emax [%] | EC50 [µM] | SMILES
1000 | 0.18 | c1cnc2sc(Nc3ncnc4ccc(Sc5nnc[nH]5)cc34)nc2c1 [Example 1, [6-(4H-[1,2,4]Triazol-3-ylsulfanyl)-quinazolin-4-yl]-thiazolo[5,4-b]pyridin-2-yl-amine]
860 | 0.08 | FCC(CF)Oc1ccc2ncnc(Nc3nc4cccnc4s3)c2c1 [Example 22, [6-(2-Fluoro-1-fluoromethyl-ethoxy)-quinazolin-4-yl]-thiazolo[5,4-b]pyridin-2-yl-amine]
 | 0.09 | c1cnc2sc(Nc3ncnc4ccc(Sc5nnc[nH]5)nc34)nc2c1 [Example 31]
